Where two headings read alike, the source gives them in different places.
What was measured:
Type in all cases: binding
[1] = molecular target: T1, HeLa cell extract proteins (Homo sapiens, UniProt Q96S59)
T1 construct: endogenous in cells; host or cells: HeLa cell extract

[2] = molecular target: T2, HeLa cell extract proteins (Homo sapiens, UniProt Q01469)
T2 construct: endogenous in cells; host or cells: HeLa cell extract

[3] = molecular target: T3, HeLa cell extract proteins (Homo sapiens, UniProt O00170)
T3 construct: endogenous in cells; host or cells: HeLa cell extract
T3 sequence (O00170 1-330): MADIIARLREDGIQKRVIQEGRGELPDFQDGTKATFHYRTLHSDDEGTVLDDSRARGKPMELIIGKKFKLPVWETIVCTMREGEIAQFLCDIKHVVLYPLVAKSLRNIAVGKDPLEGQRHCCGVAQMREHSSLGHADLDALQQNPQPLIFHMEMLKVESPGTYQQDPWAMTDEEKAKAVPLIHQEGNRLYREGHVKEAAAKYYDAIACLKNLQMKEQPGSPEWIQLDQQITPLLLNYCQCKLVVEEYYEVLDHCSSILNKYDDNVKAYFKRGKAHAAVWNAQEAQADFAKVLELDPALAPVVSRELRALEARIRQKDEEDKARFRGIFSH

[4] = molecular target: T4, HeLa cell extract proteins (Homo sapiens, UniProt O75131)
T4 construct: endogenous in cells; host or cells: HeLa cell extract

[5] = molecular target: T5, HeLa cell extract proteins (Homo sapiens, UniProt Q93099)
T5 construct: endogenous in cells; host or cells: HeLa cell extract
T5 sequence (Q93099 1-445): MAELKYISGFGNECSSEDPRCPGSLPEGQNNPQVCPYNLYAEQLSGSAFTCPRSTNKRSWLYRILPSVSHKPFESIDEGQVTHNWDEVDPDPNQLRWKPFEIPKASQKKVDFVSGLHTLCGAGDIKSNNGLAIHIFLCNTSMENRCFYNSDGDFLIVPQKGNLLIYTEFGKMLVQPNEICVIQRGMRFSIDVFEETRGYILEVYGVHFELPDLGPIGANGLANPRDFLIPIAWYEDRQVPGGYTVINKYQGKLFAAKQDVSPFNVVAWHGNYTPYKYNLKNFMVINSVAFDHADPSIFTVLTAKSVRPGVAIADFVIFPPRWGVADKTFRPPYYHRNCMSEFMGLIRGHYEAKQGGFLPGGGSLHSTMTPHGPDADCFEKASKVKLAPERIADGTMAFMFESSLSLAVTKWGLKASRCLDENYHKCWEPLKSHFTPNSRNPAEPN

[6] = molecular target: T6, HeLa cell extract proteins (Homo sapiens, UniProt P21266); conditions: protein GSTM3; HeLa
T6 construct: endogenous in cells; host or cells: HeLa cell extract
T6 sequence (P21266 1-225): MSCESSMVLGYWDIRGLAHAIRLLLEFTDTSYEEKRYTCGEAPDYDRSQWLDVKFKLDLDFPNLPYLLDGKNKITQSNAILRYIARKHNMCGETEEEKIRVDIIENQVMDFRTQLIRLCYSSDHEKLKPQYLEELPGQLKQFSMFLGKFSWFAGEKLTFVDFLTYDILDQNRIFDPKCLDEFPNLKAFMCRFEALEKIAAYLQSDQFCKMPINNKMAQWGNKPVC

[7] = molecular target: T7, HeLa cell extract proteins (Homo sapiens, UniProt P46976); conditions: protein GYG1; HeLa
T7 construct: endogenous in cells; host or cells: HeLa cell extract
T7 sequence (P46976 1-350): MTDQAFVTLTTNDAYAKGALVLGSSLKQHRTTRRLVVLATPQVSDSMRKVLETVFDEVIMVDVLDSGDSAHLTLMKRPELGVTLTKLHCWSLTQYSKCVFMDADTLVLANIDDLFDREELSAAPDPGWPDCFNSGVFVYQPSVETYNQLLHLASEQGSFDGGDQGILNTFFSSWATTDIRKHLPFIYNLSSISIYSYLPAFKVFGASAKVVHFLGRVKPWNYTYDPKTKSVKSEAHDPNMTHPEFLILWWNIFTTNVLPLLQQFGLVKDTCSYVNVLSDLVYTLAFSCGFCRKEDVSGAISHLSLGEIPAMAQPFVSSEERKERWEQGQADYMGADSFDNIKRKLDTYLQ

[8] = molecular target: T8, HeLa cell extract proteins (Homo sapiens, UniProt Q9Y316); conditions: HeLa; protein MEMO1
T8 construct: endogenous in cells; host or cells: HeLa cell extract
T8 sequence (Q9Y316 1-297): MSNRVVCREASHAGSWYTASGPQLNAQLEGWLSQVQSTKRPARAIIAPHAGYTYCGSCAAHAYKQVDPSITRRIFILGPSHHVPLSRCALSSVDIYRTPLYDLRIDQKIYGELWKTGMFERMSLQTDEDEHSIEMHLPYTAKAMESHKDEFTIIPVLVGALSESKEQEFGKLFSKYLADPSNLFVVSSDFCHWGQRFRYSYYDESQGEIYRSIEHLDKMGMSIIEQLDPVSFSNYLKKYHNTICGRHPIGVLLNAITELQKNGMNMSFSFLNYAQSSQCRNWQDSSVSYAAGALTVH

[9] = molecular target: T9, HeLa cell extract proteins (Homo sapiens, UniProt Q9Y5A9); conditions: captured protein YTHDF2; HeLa
T9 construct: endogenous in cells; host or cells: HeLa cell extract
T9 sequence (Q9Y5A9 1-579): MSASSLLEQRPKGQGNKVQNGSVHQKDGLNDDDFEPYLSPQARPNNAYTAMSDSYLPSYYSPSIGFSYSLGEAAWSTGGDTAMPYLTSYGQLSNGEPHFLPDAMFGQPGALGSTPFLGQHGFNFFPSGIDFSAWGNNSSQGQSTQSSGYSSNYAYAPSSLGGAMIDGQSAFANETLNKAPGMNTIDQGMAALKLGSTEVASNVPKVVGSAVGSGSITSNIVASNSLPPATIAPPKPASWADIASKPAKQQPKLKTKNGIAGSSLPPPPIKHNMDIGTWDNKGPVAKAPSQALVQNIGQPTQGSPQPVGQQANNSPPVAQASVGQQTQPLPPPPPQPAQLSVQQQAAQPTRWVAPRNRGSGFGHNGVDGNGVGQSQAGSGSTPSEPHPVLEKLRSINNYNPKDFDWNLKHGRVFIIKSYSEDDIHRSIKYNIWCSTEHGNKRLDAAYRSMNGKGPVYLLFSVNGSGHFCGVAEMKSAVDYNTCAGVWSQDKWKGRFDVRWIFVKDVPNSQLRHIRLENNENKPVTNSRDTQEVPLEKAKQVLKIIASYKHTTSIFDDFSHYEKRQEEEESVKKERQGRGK

T4 sequence (O75131 whole entry): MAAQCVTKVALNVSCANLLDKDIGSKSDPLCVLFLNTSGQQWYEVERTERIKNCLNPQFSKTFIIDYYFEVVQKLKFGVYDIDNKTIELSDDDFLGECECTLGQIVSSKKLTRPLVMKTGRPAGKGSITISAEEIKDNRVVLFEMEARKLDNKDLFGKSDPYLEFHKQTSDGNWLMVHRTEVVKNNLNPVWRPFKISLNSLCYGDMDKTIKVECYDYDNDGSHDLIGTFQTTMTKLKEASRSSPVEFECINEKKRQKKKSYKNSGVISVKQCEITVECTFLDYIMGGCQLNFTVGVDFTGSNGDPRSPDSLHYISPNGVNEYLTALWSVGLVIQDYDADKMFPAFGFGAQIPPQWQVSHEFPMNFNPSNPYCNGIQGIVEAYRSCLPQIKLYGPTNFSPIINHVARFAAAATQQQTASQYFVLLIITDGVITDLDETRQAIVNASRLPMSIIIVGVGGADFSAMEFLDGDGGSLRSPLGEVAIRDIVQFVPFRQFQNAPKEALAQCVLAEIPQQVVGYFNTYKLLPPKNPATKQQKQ
T1 sequence (Q96S59 whole entry): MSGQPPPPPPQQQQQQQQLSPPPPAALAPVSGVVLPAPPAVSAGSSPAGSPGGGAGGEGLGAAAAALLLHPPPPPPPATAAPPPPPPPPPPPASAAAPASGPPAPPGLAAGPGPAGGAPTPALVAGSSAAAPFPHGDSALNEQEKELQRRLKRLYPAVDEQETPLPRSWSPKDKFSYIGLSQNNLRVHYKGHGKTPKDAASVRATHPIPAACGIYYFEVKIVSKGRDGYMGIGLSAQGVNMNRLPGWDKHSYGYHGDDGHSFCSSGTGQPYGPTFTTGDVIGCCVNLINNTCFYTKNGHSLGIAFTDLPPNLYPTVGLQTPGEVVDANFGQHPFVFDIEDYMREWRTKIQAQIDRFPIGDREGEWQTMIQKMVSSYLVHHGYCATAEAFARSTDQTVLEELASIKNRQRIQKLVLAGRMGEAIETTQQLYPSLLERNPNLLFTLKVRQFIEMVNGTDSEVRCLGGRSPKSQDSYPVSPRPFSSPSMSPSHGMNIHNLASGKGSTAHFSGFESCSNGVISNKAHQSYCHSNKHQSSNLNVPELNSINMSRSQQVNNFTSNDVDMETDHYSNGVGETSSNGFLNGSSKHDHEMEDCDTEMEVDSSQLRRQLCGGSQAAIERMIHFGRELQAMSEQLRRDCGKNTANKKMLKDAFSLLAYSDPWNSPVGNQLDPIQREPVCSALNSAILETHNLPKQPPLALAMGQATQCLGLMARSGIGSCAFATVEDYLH
T2 sequence (Q01469 whole entry): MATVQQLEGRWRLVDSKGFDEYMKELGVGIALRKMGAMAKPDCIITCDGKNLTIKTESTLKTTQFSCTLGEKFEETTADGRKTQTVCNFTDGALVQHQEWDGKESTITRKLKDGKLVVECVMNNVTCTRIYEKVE

SMILES	fold changes relative to vehicle control ([1]; protein RANBP9, HeLa)	fold changes relative to vehicle control ([2]; protein FABP5, HeLa)	fold changes relative to vehicle control ([3]; HeLa, captured protein AIP)	fold changes relative to vehicle control ([4]; HeLa, protein CPNE3)	fold changes relative to vehicle control ([5]; HeLa, protein HGD)	fold changes relative to vehicle control [6]	fold changes relative to vehicle control [7]	fold changes relative to vehicle control [8]	fold changes relative to vehicle control [9]	further results
Nc1nc2c(c(=O)[nH]1)N(C=O)C(CNc1ccc(C(=O)N[C@@H](CCC(=O)O)C(=O)O)cc1)CN2 (some centres unmarked) [LEU, leucovorin]	1.03	1	0.79	1.23	0.87	–	–	–	–	–
Nc1nc2[nH]cc(CCc3ccc(C(=O)N[C@@H](CCC(=O)O)C(=O)O)cc3)c2c(=O)[nH]1 [PTX, pemetrexed]	–	–	–	–	–	–	–	–	–	fold changes relative to vehicle control [1]: 1.05; fold changes relative to vehicle control [2]: 1.45; fold changes relative to vehicle control [3]: 0.93; fold changes relative to vehicle control [4]: 0.77; fold changes relative to vehicle control [5]: 1.01
CCCCCCOc1ccc(Cc2cnc(N)nc2N)cc1 [compound 1]	–	–	–	–	–	1.22	1.09	0.97	0.79	–
CCCCCCOc1cccc(Cc2cnc(N)nc2N)c1 [compound 2]	–	–	–	–	–	1.72	1.31	0.87	1.16	–
Nc1nc2cccc(-c3ccccc3)c2n1Cc1ccc(Cl)c(Cl)c1 [compound 3]	–	–	–	–	–	0.93	0.95	1	1.01	–
NCCOCCOCC(=O)Nc1nc2ncc(CNc3ccc(C(=O)NC(CCC(=O)O)C(=O)O)cc3)nc2c(=O)[nH]1 (centres unmarked) [compound 6]	0.96	1.3	0.92	0.91	1.01	–	–	–	–	–
NCCCNc1ccc(C(=O)NC(CCC(=O)O)C(=O)O)cc1 (centres unmarked) [compound 7]	1.65	1.1	0.99	0.85	0.8	–	–	–	–	–
